Experimental data as given in paper PMC5573416, “Inhibiting mycobacterial tryptophan synthase by targeting the inter-subunit interface” (Scientific Reports, 2017).
Values after ≈ are worked out from the molar mass of the structure shown. Like-named read-outs stand apart in the source and are kept apart here.

Legend:
[1] = tested on: HepG2 cells
[2] = tested on: Mtb H37Rv; settings: mouse, in vivo
[3] = PAMPA
[4] = Property forecast index (ChromlogD pH 7.4 + number of aromatic rings); assay type: physicochemical
[5] = tested on: Mtb H37Rv; assay: microbe, parasite or virus in culture; assay type: cell-based, Mycobacterium tuberculosis; settings: for MIC: Mycobacterium tuberculosis, H37RV, read-out: Mtb H37Rv MIC
[6] = pH 7.4
[7] = tested on: M. bovis BCG; assay type: cell-based, Mycobacterium bovis BCG
[8] = target: T1, Mtb tryptophan synthase (TrpA and TrpB) (Mycobacterium tuberculosis, UniProt P9WFX9+P9WFY1); assay type: biochemical
T1 sequence (P9WFY1 whole entry): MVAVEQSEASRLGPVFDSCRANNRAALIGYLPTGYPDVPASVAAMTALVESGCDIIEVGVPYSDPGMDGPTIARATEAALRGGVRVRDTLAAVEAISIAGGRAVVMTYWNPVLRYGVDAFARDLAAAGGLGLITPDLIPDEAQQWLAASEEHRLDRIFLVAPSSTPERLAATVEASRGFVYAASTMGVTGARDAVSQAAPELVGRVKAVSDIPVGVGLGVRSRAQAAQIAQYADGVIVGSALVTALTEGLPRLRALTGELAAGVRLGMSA
T1 sequence (P9WFX9 12-421 limits assumed): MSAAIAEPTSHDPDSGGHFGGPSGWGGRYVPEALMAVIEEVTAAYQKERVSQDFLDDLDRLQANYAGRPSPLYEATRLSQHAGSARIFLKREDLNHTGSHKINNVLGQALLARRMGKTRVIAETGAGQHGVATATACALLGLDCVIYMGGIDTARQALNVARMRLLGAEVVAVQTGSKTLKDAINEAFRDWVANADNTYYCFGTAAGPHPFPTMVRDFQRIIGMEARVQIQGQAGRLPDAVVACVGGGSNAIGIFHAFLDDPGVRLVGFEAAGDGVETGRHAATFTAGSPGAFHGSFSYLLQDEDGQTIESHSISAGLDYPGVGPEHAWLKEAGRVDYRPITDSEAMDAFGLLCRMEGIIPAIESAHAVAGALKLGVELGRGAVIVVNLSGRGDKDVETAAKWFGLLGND

[9] = tested on: Mycobacterium bovis BCG; assay: microbe, parasite or virus in culture; assay type: cell-based; settings: Mycobacterium tuberculosis variant bovis BCG, read-out: MIC in M. bovis BCG
[10] = tested on: M. bovis BCG over-expressing constituents of the trp operon; assay type: cell-based; settings: pVV16 trpA or trpB
[11] = target: PLP-induced tryptophan synthase complex (Mycobacterium tuberculosis, UniProt P9WFX9+P9WFY1); assay type: binding
Chain of PLP-induced tryptophan synthase complex (P9WFY1 whole entry): as the sequence (P9WFY1 whole entry) above
Chain of PLP-induced tryptophan synthase complex (P9WFX9 12-421 limits assumed): as the sequence (P9WFX9 12-421 limits assumed) above

[12] = in vitro; settings: PAMPA
[13] = physchem; settings: pH 7.4, aqueous buffer, kinetic from dmso stock
[14] = pH 7.4; remark: listed apart in the source
[15] = pH 7.4; remark: listed apart in the source
[16] = target: T1, Mtb tryptophan synthase (TrpA and TrpB); assay type: biochemical; remark: listed apart in the source
[17] = sum of chromatographic logD at pH = 7.4 + number of aromatic rings

Row | Molecule | HepG2 Tox50 [1] [µM] | AMP Permeability [3] [nm/s] | PFI [4, 17] | Mtb H37Rv MIC [5] [µM] | CLND Solubility [6] | L-tryptophan rescue of inhibition [7] | MIC [9] [µM] | Effect on MIC of over-expression of the individual WT subunits [10] | HepG2 Tox50 ([1]; human) [µM] | Binding to PLP-induced tryptophan synthase complex [11] | MIC [5] [µM] | Papp [12] [×10⁻⁶ cm/s] | solubility [13] [µM] | Cli mouse [14] [mL/min/g] | Cli human [15] [mL/min/g] | other results
1 | (3R,4R)-3-(4-(2-chloro-4-fluorophenyl)piperidin-1-yl)-4-hydroxytetrahydrothiophene 1,1-dioxide [Compound 5] | >100 | 520 | 5.22 | 0.5 | 397 µM |  |  |  |  |  |  |  |  |  |  | Efficacy response in acute infection assay ([2]; sc): did not show a statistically significant response
2 | (3R,4R)-3-(4-(2-chlorophenyl)piperidin-1-yl)-4-hydroxytetrahydrothiophene 1,1-dioxide [Compound 4] | >100 | 625 | 5.43 | 2.25 | 434 µM |  |  |  |  |  |  |  |  |  |  | Efficacy response in acute infection assay [2]: proved to be efficacious; Reduction of log CFU compared with untreated mice ([2]; po, 350 mg/kg): 1.4 log colony forming units (CFU); Tolerability in infected mice ([2]; po, 500 mg/kg): had to be withdrawn due to adverse effects
3 | NNC(=O)c1ccncc1 [Isoniazid, isoniazid, reference compound] |  |  |  |  |  | L-tryptophan does not rescue the inhibition |  |  |  |  |  |  |  |  |  | 
4 | CNS(=O)(=O)c1ccc2c(c1)CCN2C(=O)c1ccccc1F [Compound 2] |  |  |  |  | enhanced solubility | L-tryptophan rescued the inhibition | 5 (≈ 1.67 µg/mL) | did not alter the MIC | >100 | binding of both inhibitors | 5.6 (≈ 1.87 µg/mL) | 26 | 140 (≈ 46.8 µg/mL) |  |  | L-tryptophan synthesis in presence of inhibitor (TLC) [8]: markedly decreased; PFI [4]: 5.80
5 | O=S1(=O)C[C@H](O)[C@@H](N2CCN(c3ccccc3Cl)CC2)C1 [Compound 1, (3R,4R)-3-(4-(2-chlorophenyl)piperazin-1-yl)-4-hydroxytetrahydrothiophene 1,1-dioxide] |  |  | 4.53 |  |  |  | 1 (≈ 0.331 µg/mL) | did not alter the MIC | >50 |  | 0.76 (≈ 0.251 µg/mL) | 38 | > 464 | 15.7 | 0.92 | 
6 | CNS(=O)(=O)c1ccc2c(c1)CCN2C(=O)c1ccc(C)s1 [Compound 3] |  |  |  |  | poor solubility | L-tryptophan rescued the inhibition | 0.7 (≈ 0.236 µg/mL) | did not alter the MIC | >100 | binding of both inhibitors | 1.1 (≈ 0.37 µg/mL) | 42.7 | 19 (≈ 6.39 µg/mL) | 27.1 | 1.9 | L-tryptophan produced in presence of inhibitor (GF-HPLC) [16]: significant decrease in the L-tryptophan produced
